# In patent publication US12240815B2, “Potent and selective human neuronal nitric oxide synthase inhibitors” (Northwestern University, priority 2020, dated 2025):
# Where a name gives a salt, the structure may show the parent alone. Read-outs that look alike come from different tables or passages of the source.
# Experiments:
# rat nNOS = rat nNOS (Rattus norvegicus, UniProt P29476); assay: NO hemoglobin capture assay, rat nNOS; type: biochemical; conditions: for Selectivity n/i: nNOS versus iNOS
# rat nNOS, sequence (P29476 whole entry): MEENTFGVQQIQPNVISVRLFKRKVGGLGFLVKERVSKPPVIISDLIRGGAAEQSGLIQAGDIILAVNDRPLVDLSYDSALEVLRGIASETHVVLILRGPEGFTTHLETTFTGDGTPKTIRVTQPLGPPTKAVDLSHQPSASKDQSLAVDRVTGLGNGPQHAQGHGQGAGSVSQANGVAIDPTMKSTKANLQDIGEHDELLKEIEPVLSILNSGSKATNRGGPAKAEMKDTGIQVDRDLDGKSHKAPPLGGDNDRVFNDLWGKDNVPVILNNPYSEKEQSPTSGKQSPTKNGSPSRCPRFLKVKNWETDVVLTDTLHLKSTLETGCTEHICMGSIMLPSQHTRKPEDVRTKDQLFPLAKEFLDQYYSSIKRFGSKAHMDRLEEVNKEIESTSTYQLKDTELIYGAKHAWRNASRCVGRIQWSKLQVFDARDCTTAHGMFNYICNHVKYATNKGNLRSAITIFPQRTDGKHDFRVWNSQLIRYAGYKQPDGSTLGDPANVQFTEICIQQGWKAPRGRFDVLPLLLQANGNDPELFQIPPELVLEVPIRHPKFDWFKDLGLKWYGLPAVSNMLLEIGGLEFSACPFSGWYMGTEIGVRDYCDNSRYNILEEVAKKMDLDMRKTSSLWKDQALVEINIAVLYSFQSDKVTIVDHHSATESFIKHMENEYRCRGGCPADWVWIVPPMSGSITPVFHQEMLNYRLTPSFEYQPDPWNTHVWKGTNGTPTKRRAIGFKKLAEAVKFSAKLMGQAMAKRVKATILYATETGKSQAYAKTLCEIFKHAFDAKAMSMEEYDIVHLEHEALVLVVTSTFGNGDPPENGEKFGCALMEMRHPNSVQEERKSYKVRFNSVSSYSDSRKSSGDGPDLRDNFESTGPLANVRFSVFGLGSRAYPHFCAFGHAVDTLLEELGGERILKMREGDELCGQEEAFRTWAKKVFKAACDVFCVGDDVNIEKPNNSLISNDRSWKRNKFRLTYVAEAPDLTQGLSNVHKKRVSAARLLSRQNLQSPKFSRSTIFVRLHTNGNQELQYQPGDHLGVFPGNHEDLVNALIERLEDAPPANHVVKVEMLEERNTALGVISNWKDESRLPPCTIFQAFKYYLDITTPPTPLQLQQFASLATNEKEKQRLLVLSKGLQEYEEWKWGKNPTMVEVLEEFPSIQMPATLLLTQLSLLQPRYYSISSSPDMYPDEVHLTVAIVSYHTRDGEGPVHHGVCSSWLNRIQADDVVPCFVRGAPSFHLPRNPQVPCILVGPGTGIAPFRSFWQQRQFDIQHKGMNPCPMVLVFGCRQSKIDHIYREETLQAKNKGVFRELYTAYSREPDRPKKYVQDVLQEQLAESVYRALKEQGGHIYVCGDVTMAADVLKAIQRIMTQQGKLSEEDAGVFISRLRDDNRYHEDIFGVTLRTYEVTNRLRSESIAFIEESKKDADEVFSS
# human nNOS = human nNOS (Homo sapiens, UniProt P29475); assay: NO hemoglobin capture assay, human nNOS; type: biochemical; conditions: for Selectivity Human n/e: human nNOS versus human eNOS
# human nNOS, sequence (P29475 whole entry): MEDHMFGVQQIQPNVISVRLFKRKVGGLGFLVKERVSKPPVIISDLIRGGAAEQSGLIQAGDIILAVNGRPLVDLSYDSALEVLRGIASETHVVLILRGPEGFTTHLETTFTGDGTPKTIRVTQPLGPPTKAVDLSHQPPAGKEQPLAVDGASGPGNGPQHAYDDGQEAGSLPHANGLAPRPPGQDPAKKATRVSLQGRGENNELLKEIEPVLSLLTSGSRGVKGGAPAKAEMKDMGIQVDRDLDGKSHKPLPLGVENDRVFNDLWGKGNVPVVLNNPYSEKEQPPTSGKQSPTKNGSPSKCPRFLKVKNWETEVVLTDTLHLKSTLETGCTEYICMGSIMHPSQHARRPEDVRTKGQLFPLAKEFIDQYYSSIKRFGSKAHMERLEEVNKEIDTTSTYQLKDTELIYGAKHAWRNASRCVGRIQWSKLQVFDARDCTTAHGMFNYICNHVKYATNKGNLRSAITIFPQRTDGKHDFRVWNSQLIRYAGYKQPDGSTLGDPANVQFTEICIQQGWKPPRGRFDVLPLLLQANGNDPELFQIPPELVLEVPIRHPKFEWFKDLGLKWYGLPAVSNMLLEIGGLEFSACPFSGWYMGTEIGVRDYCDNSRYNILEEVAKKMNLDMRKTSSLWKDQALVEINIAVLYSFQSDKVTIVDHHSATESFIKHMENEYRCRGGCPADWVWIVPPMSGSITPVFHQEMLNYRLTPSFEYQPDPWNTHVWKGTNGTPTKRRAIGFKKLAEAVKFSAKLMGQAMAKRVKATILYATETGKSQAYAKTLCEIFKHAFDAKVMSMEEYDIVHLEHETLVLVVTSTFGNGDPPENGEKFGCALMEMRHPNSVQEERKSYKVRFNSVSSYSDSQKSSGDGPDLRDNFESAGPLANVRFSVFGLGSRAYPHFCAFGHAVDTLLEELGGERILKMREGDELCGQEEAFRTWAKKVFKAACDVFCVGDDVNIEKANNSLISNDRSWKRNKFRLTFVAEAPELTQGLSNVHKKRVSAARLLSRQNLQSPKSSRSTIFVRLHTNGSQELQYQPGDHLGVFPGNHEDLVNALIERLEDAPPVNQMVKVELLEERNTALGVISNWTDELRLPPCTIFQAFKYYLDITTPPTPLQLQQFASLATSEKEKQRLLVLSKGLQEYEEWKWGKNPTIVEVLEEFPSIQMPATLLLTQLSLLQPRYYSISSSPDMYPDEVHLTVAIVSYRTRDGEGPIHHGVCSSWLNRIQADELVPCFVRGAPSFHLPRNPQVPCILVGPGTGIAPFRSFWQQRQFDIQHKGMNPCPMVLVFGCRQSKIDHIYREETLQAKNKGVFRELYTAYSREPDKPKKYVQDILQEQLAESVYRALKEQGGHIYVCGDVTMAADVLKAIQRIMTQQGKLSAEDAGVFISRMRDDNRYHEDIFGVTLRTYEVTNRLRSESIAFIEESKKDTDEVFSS
# murine macrophage iNOS = murine macrophage iNOS (Mus musculus, UniProt P29477); assay: NO hemoglobin capture assay, murine iNOS; type: biochemical
# human eNOS = human eNOS (Homo sapiens, UniProt P29474); assay: NO hemoglobin capture assay, human eNOS
# human iNOS = human iNOS (Homo sapiens, UniProt P35228); assay: NO hemoglobin capture assay, human iNOS
# PAMPA-BBB assay = conditions: for Pe PAMPA-BBB: Table 4; for Papp at 17 h, 200 μM: PAMPA, pH 7.5
# iNOS = iNOS (Mus musculus, UniProt P29477); assay: NO hemoglobin capture assay, iNOS (Table 4, species not given)
# [1] = pH 7.4, read-out: Ki human nNOS
# [2] = Table 1, Ki from IC50 by Cheng-Prusoff, 10 μM L-Arg, pH 7.4, 37° C.
# [3] = Table 5, Ki from IC50 by Cheng-Prusoff, 8 to 11 concentrations, read-out: Ki RnNOS
# [4] = Table 5, Ki from IC50 by Cheng-Prusoff, 8 to 11 concentrations, read-out: Ki HnNOS
# [5] = read-out: Ki HiNOS, Table 5, Ki from IC50 by Cheng-Prusoff, 8 to 11 concentrations
# [6] = Table 4, read-out: Ki Human nNOS
compound,measurement,setting,value
"CNCC#Cc1cc(F)cc(CCc2cc(C)cc(N)n2)c1 [Compound 2, 6-(3-fluoro-5-(3-(methylamino)prop-1-yn-1-yl)phenethyl)-4-methylpyridin-2-amine]",Ki,"rat nNOS; pH 7.4, read-out: Ki rat nNOS",0.032 µM
same,Ki,human nNOS; [1],0.058 µM
same,Ki,murine macrophage iNOS; [2],7.62 µM
"CN(C)CCc1cc(F)c(F)c(CCc2cc(C(F)(F)F)cc(N)n2)c1 [Compound 64, 6-(5-(2-(Dimethylamino)ethyl)-2,3-difluorophenethyl)-4-(trifluoromethyl)pyridin-2-amine]",Ki,human eNOS,102 µM
"CNCCCc1cc(C)cc(N)n1 [Compound 70, 4-Methyl-6-(3-(methylamino)propyl)pyridin-2-amine hydrochloride]",Ki,rat nNOS; [3],0.029 µM
same,Selectivity hn/rn,human nNOS; Table 5,1.4
same,Ki,human nNOS; [4],0.021 µM
same,Ki,human iNOS; [5],0.669 µM
"Cc1cc(N)nc(CCc2cc(CC[C@H]3COCCN3C)cc(F)c2F)c1 [Compound 19, (S)-6-(2,3-difluoro-5-(2-(4-methylmorpholin-3-yl)ethyl)phenethyl)-4-methylpyridin-2-amine]",Ki,"rat nNOS; pH 7.4, read-out: Ki rat nNOS",0.062 µM
same,Ki,human nNOS; [1],0.089 µM
same,Ki,murine macrophage iNOS; [2],3.45 µM
CNC/C=C/c1cc(F)cc(CCc2cc(C)cc(N)n2)c1 [Compound 48],Selectivity n/i,rat nNOS; Table 4,130
same,Ki,"rat nNOS; Table 4, read-out: Ki Rat nNOS",0.021 µM
same,Selectivity nNOS human/rat,human nNOS; Table 4,1.3
same,Selectivity Human n/e,human nNOS; Table 4,721
same,Ki,human nNOS; [6],0.028 µM
same,Pe PAMPA-BBB,PAMPA-BBB assay,10.30 ± 0.02 10^-6 cm/s
same,Ki,human eNOS,20.2 µM
same,Ki,iNOS,2.73 µM
"Cc1cc(N)nc(CCc2cc(CCN(C)C)cc(F)c2F)c1 [Compound 58, 6-(5-(2-(Dimethylamino)ethyl)-2,3-difluorophenethyl)-4-methylpyridin-2-amine hydrochloride]",Pe PAMPA-BBB,PAMPA-BBB assay,19.5 ± 1.4 10^-6 cm/s
same,Ki,iNOS,1.05 µM
"Cc1cc(N)nc(CCc2c(F)c(F)cc(CCCN(C)C)c2F)c1 [Compound 13, 6-(3-(3-(dimethylamino)propyl)-2,5,6-trifluorophenethyl)-4-methylpyridin-2-amine]",Ki,"rat nNOS; pH 7.4, read-out: Ki rat nNOS",0.047 µM
same,Ki,human nNOS; [1],0.058 µM
same,Ki,murine macrophage iNOS; [2],3.26 µM
"Cc1cc(N)nc(CCc2cc(F)cc(CC[C@H]3CCCN3C)c2)c1 [Compound 7, (S)-6-(3-fluoro-5-(2-(1-methylpyrrolidin-2-yl)ethyl)phenethyl)-4-methylpyridin-2-amine]",Ki,"rat nNOS; pH 7.4, read-out: Ki rat nNOS",0.033 µM
same,Ki,human nNOS; [1],0.084 µM
same,Ki,murine macrophage iNOS; [2],3.39 µM
CNCc1ccc2ncc(CCc3cc(C)cc(N)n3)cc2c1 [Compound 49],Selectivity n/i,rat nNOS; Table 4,99
same,Ki,"rat nNOS; Table 4, read-out: Ki Rat nNOS",0.038 µM
same,Selectivity nNOS human/rat,human nNOS; Table 4,0.9
same,Selectivity Human n/e,human nNOS; Table 4,614
same,Ki,human nNOS; [6],0.036 µM
same,Pe PAMPA-BBB,PAMPA-BBB assay,No permeability
same,Ki,human eNOS,22.1 µM
same,Ki,iNOS,3.76 µM
"Cc1cc(N)nc(CCc2cc(CCCN(C)C)cc(F)c2F)c1 [Compound 10, 6-(5-(3-(dimethylamino)propyl)-2,3-difluorophenethyl)-4-methylpyridin-2-amine]",Ki,"rat nNOS; pH 7.4, read-out: Ki rat nNOS",0.019 µM
same,Ki,murine macrophage iNOS; pH 7.4,0.823 µM
same,Ki,human eNOS; read-out: Ki human eNOS,35 µM
same,Ki,human iNOS; read-out: Ki human iNOS,1.31 µM
"Cc1cc(N)nc(CCc2cc(F)cc(CC[C@@H]3C[C@H](F)CN3)c2)c1 [Compound 8, 6-(3-fluoro-5-(2-((2R,4S)-4-fluoropyrrolidin-2-yl)ethyl)phenethyl)-4-methylpyridin-2-amine]",Ki,"rat nNOS; pH 7.4, read-out: Ki rat nNOS",0.065 µM
same,drop in human nNOS potency compared to 1,human nNOS,4 fold
same,Ki,human nNOS; [1],0.129 µM
same,Ki,murine macrophage iNOS; [2],4.54 µM
"Cc1cc(N)nc(CCc2cc(F)cc(CCCN(C)C)c2F)c1 [Compound 12, 6-(3-(3-(dimethylamino)propyl)-2,5-difluorophenethyl)-4-methylpyridin-2-amine]",Ki,"rat nNOS; pH 7.4, read-out: Ki rat nNOS",0.079 µM
same,Ki,human nNOS; [1],0.157 µM
same,Ki,murine macrophage iNOS; [2],1.95 µM
"Cc1cc(N)nc(CCc2cc(CC[C@H]3CCCN3C)cc(F)c2F)c1 [Compound 18, (S)-6-(2,3-difluoro-5-(2-(1-methylpyrrolidin-2-yl)ethyl)phenethyl)-4-methylpyridin-2-amine]","Papp at 17 h, 200 μM",PAMPA-BBB assay,~18 ×10⁻⁶ cm/s
"Cc1cc(N)nc(CCc2cc(F)cc(C#CCN(C)C)c2)c1 [Compound 3, 6-(3-(3-(dimethylamino)prop-1-yn-1-yl)-5-fluorophenethyl)-4-methylpyridin-2-amine]",drop in rat nNOS potency compared to 1,rat nNOS,more than 2 fold
same,Ki,"rat nNOS; pH 7.4, read-out: Ki rat nNOS",0.058 µM
same,drop in human nNOS potency compared to 1,human nNOS,> 4 fold
same,Ki,human nNOS; [1],0.124 µM
same,Ki,murine macrophage iNOS; [2],4.89 µM
"Cc1cc(N)nc(CCCN(C)C)c1 [Compound 69, 6-(3-(Dimethylamino)propyl)-4-methylpyridin-2-amine hydrochloride]",Ki,human nNOS; [4],0.029 µM
same,Ki,human eNOS,0.537 µM
same,Ki,human iNOS; [5],2.83 µM
"Cc1cc(N)nc(CCc2cc(F)cc(CC[C@@H]3C[C@H](F)CN3C)c2)c1 [Compound 9, 6-(3-fluoro-5-(2-((2R,4S)-4-fluoro-1-methylpyrrolidin-2-yl)ethyl)phenethyl)-4-methylpyridin-2-amine]",Ki,murine macrophage iNOS; [2],5.01 µM
"CNCCc1cc(F)c(F)c(CCc2cc(C)cc(N)n2)c1 [Compound 60, 6-(2,3-Difluoro-5-(2-(methylamino)ethyl)phenethyl)-4-methylpyridin-2-amine]",Ki,rat nNOS,0.028 µM
same,Ki,human nNOS,0.024 µM
same,Selectivity hn/hi,human nNOS; Table 5,72
same,Selectivity hn/rn,human nNOS; Table 5,1.2
same,Ki,human iNOS,1.75 µM
Cc1cc(N)nc(CCc2c(F)c(F)cc(CC[C@H]3CCCN3C)c2F)c1 [Compound 52],Selectivity n/i,rat nNOS; Table 4,108
same,Ki,"rat nNOS; Table 4, read-out: Ki Rat nNOS",0.093 µM
same,Selectivity nNOS human/rat,human nNOS; Table 4,1.62
same,Selectivity Human n/e,human nNOS; Table 4,196
same,Ki,human nNOS; [6],0.151 µM
same,Pe PAMPA-BBB,PAMPA-BBB assay,20.3 ± 0.16 10^-6 cm/s
same,Ki,human eNOS,27.3 µM
same,Ki,iNOS,10 µM
"Cc1cc(N)nc(CCCN2CCN(C)CC2)c1 [Compound 72, 4-Methyl-6-(3-(4-methylpiperazin-1-yl)propyl)pyridin-2-amine]",Ki,rat nNOS; read-out: Ki RnNOS,0.055 µM
same,Selectivity hn/rn,human nNOS; Table 5,3.0
same,Ki,human nNOS; [4],0.171 µM
same,Ki,human iNOS; [5],10.2 µM
"Cc1cc(N)nc(CCc2cc(CC[C@@H]3CCCN3C)cc(F)c2F)c1 [Compound 17, (R)-6-(2,3-difluoro-5-(2-(1-methylpyrrolidin-2-yl)ethyl)phenethyl)-4-methylpyridin-2-amine]","Papp at 17 h, 200 μM",PAMPA-BBB assay,~18 ×10⁻⁶ cm/s
Cc1cc(N)nc(CCc2c(F)c(F)cc(CC[C@@H]3CCCN3C)c2F)c1 [Compound 51],Selectivity n/i,rat nNOS; Table 4,88
same,Ki,"rat nNOS; Table 4, read-out: Ki Rat nNOS",0.067 µM
same,Selectivity nNOS human/rat,human nNOS; Table 4,1.7
same,Selectivity Human n/e,human nNOS; Table 4,266
same,Ki,human nNOS; [6],0.112 µM
same,Pe PAMPA-BBB,PAMPA-BBB assay,20 ± 0.85 10^-6 cm/s
same,Ki,human eNOS,29.8 µM
same,Ki,iNOS,5.88 µM
"CNCC#Cc1cc(C)cc(N)n1 [Compound 71, 4-Methyl-6-(3-(methylamino)prop-1-yn-1-yl)pyridin-2-amine hydrochloride]",Ki,rat nNOS; [3],0.088 µM
same,Selectivity hn/rn,human nNOS; Table 5,1.0
same,Ki,human nNOS; [4],0.092 µM
same,Ki,human iNOS; [5],3.58 µM
"Cc1cc(N)nc(CCc2cc(F)cc(CC[C@@H]3CCCN3C)c2)c1 [Compound 5, (R)-6-(3-fluoro-5-(2-(1-methylpyrrolidin-2-yl)ethyl)phenethyl)-4-methylpyridin-2-amine]",Ki,"rat nNOS; pH 7.4, read-out: Ki rat nNOS",0.026 µM
same,Ki,human nNOS; [1],0.052 µM
same,Ki,murine macrophage iNOS; [2],2.91 µM
"CN(C)CCc1cc(F)c(F)c(CCc2cccc(N)n2)c1 [Compound 59, 6-(5-(2-(Dimethylamino)ethyl)-2,3-difluorophenethyl)pyridin-2-amine hydrochloride]",Ki,"rat nNOS; Ki RnNOS, Table 5, Ki from IC50 by Cheng-Prusoff, 8 to 11 concentrations",0.94 µM
same,Ki,human nNOS,3.16 µM
Cc1cc(N)nc(CCc2cc(CN(C)C)cc(F)c2F)c1 [Compound 54],Ki,iNOS,0.076 µM
CNCC#Cc1cc(F)c(F)c(CCc2cc(C)cc(N)n2)c1F [Compound 50],Selectivity n/i,rat nNOS; Table 4,48
same,Ki,"rat nNOS; Table 4, read-out: Ki Rat nNOS",0.119 µM
same,Selectivity nNOS human/rat,human nNOS; Table 4,1.4
same,Selectivity Human n/e,human nNOS; Table 4,157
same,Ki,human nNOS; [6],0.168 µM
same,Pe PAMPA-BBB,PAMPA-BBB assay,19.10 ± 0.5 10^-6 cm/s
same,Ki,human eNOS,26.5 µM
same,Ki,iNOS,5.78 µM
"Cc1cc(N)nc(CCc2cc(C#CCN(C)C)cc(F)c2F)c1 [Compound 16, 6-(5-(3-(dimethylamino)prop-1-yn-1-yl)-2,3-difluorophenethyl)-4-methylpyridin-2-amine]",Ki,"rat nNOS; pH 7.4, read-out: Ki rat nNOS",0.081 µM
same,Ki,human nNOS; [1],0.084 µM
same,Ki,murine macrophage iNOS; [2],4.41 µM
"Nc1cc(Cl)cc(OCc2cccc(F)c2F)n1 [Compound 68, 4-Chloro-6-((2,3-difluorobenzyl)oxy)pyridin-2-aminehydrochloride]",Ki,rat nNOS; read-out: Ki RnNOS,102 µM
"CCO[C@@H]1C[C@H](CCc2cc(F)c(F)c(CCc3cc(C)cc(N)n3)c2)N(C)C1 [Compound 20, 6-(5-(2-((2S,4R)-4-ethoxy-1-methylpyrrolidin-2-yl)ethyl)-2,3-difluorophenethyl)-4-methylpyridin-2-amine]",Ki,"rat nNOS; pH 7.4, read-out: Ki rat nNOS",0.055 µM
same,Ki,human nNOS; [1],0.087 µM
same,Ki,murine macrophage iNOS; [2],4.5 µM
"Cc1cc(N)nc(C#CCN2CCN(C)CC2)c1 [Compound 73, 4-Methyl-6-(3-(4-methylpiperazin-1-yl)prop-1-yn-1-yl)pyridin-2-amine]",Ki,rat nNOS; [3],0.947 µM
same,Selectivity hn/rn,human nNOS; Table 5,2.2
same,Ki,human nNOS; [4],2.12 µM
same,Ki,human iNOS; [5],114 µM
CNC/C=C\c1cc(F)cc(CCc2cc(C)cc(N)n2)c1 [Compound 47],Selectivity n/i,rat nNOS; Table 4,73
same,Ki,"rat nNOS; Table 4, read-out: Ki Rat nNOS",0.031 µM
same,Selectivity nNOS human/rat,human nNOS; Table 4,2.5
same,Selectivity Human n/e,human nNOS; Table 4,320
same,Ki,human nNOS; [6],0.077 µM
same,Pe PAMPA-BBB,PAMPA-BBB assay,10.92 ± 0.02 10^-6 cm/s
same,Ki,human eNOS,24.7 µM
same,Ki,iNOS,2.28 µM
